Here are results for 1 molecule from patent publication US20030100479A1, “Gene polymorphisms and response to treatment” (priority 2001, published 2003).

The nature of series [1]: Clinical trial of GW320659: change in supine diastolic blood pressure (time-adjusted AUC), by genotype. It is filed as in vivo, human. The source says: (§1) Using genotyping methods as are well known in the art, genetic data were obtained from approximately 200 of more than 500 human subjects enrolled in a dose-ranging efficacy and safety study of GW320659 for weight loss (main study group; a randomized, double-blind, placebo controlled, dose-ranging clinical trial); GW320659 was used in conjunction with a mildly hypocaloric diet and brief weight management guidance. Subjects were between the ages of 18-65 years, with a Body Mass Index (BMI) of 30-40, and were not on any psychotropic medications or other anti-obesity medications. Subjects were randomized into one of five treatment groups: placebo or GW320659 at 2.5 mg/day, 5 mg/day, 10 mg/day, or 15 mg/day (oral administration). In the main study group, for the GW320659 15 mg/day dosage, average weight loss was approximately 3.7 kg (108 subjects; data not shown).
(§2) Subjects were assessed for various parameters, including absolute change in body weight from week 0 to week 24 of the study; supine heart rate, diastolic blood pressure and systolic blood pressure at multiple predetermined time-points across the study; and change in Food Craving Inventory (Total) score from week 0 to week 24.
Analyses of changes in cardiovascular endpoints (HR, SBP, DBP, all measured in supine subjects) were conducted individually for each of the polymorphic sites, and analyzed as follows. Vital sign assessments at all post-baseline visits were analyzed utilizing a repeated measures (mixed) ANOVA model. Genotype by treatment interactions were assessed. The following model was used.
If the treatment by time interaction was non-significant, the corresponding term was planned to be removed from the model, prior to assessing treatment by genotype interaction. Subsequently, this term was removed for all vital signs analyses. In addition, vital signs data was analyzed utilizing a time-weighted area under the curve (adjusted for baseline) analysis. Model #2 (used for the efficacy analyses) was employed for these analyses.
Supine heart rate (HR), supine systolic blood pressure (SBP) and supine diastolic blood pressure (DBP) were assessed at various fixed intervals across the duration of the study. Summaries and analyses were conducted on the “area under the curve” (AUC) values (adjusted for time on study and baseline). All reported p-values in this section refer to AUC analyses, using Model No.2 as described above.
Accordingly, for some recursive partioning analysis the treatment groups were split in this manner (15 mg versus all other groups). The p-value threshold was set 0.10 (the minimum level necessary to get further automatic splits). The software then determined the remaining splits for the 15 mg group. […]

Series [2] relates to dopamine reuptake. The settings on record: Kelley et al., J. Med. Chem. 39:347 (1996); cited from earlier work.
The nature of series [3]: Clinical trial of GW320659: change in Food Craving Inventory (Total) score week 0 to week 24, by genotype. It is filed as in vivo, human. The settings on record: for Change in Food Craving Inventory, mean response: 10 mg+15 mg; for Placebo adjusted mean change in Food Craving Inventory (Total) score: 15 mg dose group; for Mean change in Food Craving Inventory (Total) score: data not shown.
From the text: as §1, §2
The endpoint of Change in Food Craving Inventory (total score) was analyzed with the same methods.
The Food Craving Inventory used was a validated scale developed at Louisiana State University. It is a scale of 37 items designed to measure food cravings for specific foods. For each item the subject is asked “Over the past month, how often have you experienced a craving for the food?”. Possible responses were Never, Rarely, Sometimes, Often, and Always. These responses were converted to ordinal scores (1, 2, 3, 4, 5). The mean total score was computed for each patient. Change from baseline mean scores were analyzed. Possible range for this measure was −4 to 4; a negative number indicates a decrease in cravings.
The change in Food Craving Inventory was assessed by grouping low dose treatments together (2.5+5 mg treatments) and higher dose treatments together (10 mg+15 mg), and comparing to placebo, using a p-value threshold set at […] (the minimum level necessary to get further automatic splits). The software then determined the remaining splits for the 10 mg+15 mg group. The splits found in the 10+15 mg group were then manually duplicated for the lower dose group (2.5+5 mg) for comparison purposes. As an example, for the 10 mg+15 mg treatment doses, the mean response for subjects with genotype 1, 2 or 2,2 for the NET1 C120A genetic marker and a baseline weight greater than 86.6 kg, was −0.55 (std=0.37 n=49). FIG. 11. For all subjects not in the defined subgroup, mean response was −0.02 (std=0.60, n=25).

The nature of series [4]: Clinical trial of GW320659: change in supine systolic blood pressure (time-adjusted AUC), by genotype. It is filed as in vivo, human.
From the text: Using genotyping methods as are well known in the art, genetic data were obtained from approximately 200 of more than 500 human subjects enrolled in a dose-ranging efficacy and safety study of GW320659 for weight loss (main study group; a randomized, double-blind, placebo controlled, dose-ranging clinical trial); GW320659 was used in conjunction with a mildly hypocaloric diet and brief weight management guidance. Subjects were between the ages of 18-65 years, with a Body Mass Index (BMI) of 30-40, and were not on any psychotropic medications or other anti-obesity medications. […]
as §2
Analyses of changes in cardiovascular endpoints (HR, SBP, DBP, all measured in supine subjects) were conducted individually for each of the polymorphic sites, and analyzed as follows. Vital sign assessments at all post-baseline visits were analyzed utilizing a repeated measures (mixed) ANOVA model. Genotype by treatment interactions were assessed. […]

Series [5] deals with norepinephrine uptake. The settings on record: Kelley et al., J. Med. Chem. 39:347 (1996); cited from earlier work.
Where [6] appears, read: NET1 T342C (2,2) and without DRD2 C12121T (2,2), 10 mg/day or 15 mg/day.
Where [7] appears, read: subgroup 2/2 NET1T342C and/or 2/2 NET1G155A and/or 2/2 NR1G6435A, 10 mg/day+15 mg/day, 26 subjects.

“Also recorded” adds a separate entry of the source.

Consider `C[C@@H]1CO[C@@](O)(c2cc(F)cc(F)c2)[C@H](C)N1.Cl` [GW320659, (2S,3S,5R)-2-(3,5-difluorophenyl)-3,5-dimethyl-2-morpholinol], for which the “Changes in diastolic blood pressure compared to subjects with alternate genotypes” value in series [1] (setting [6]) was “decreased changes in heart rate and blood pressure; also recorded: comparatively small changes in HR, SBP and DBP”. In series [1] (subgroup 2,2 for NET1T342C and/or NET1G155A and/or NR1G6435A, 10 mg and 15 mg combined), the “Mean rise in DBP” value came out at 2.4 mmHG. Moreover, in series [1] (subgroup 2,2 for NET1T342C and/or NET1G155A and/or NR1G6435A, 10 mg/day+15 mg/day, not significantly different from placebo), the “Overall mean time-adjusted change in Diastolic Blood Pressure, mean rise” value came out at 2.4 mm Hg. Besides, the “Diastolic Blood Pressure (mean time adjusted change)” value in series [1] (setting [7]) is 2.431. The “Inhibition of dopamine reuptake” value in series [2] is recorded as “weaker reuptake inhibition effects on dopamine reuptake”. Further, the “Change in Food Craving Inventory, mean response” value in series [3] (NET1 C120A genotype 1,2 or 2,2 and baseline weight greater than 86.6 kg, std=0.37 n=49) was −0.55; in series [3] (all subjects not in the defined subgroup, std=0.60, n=25), −0.02. For the same molecule, the “Placebo adjusted mean change in Food Craving Inventory (Total) score” value is on record as 0.7 in series [3] (5HTT G160A 2,2 genotype, scale range −4 to 4); 0.2 in series [3] (NET1 C120A genotype 1,1); −0.4 in series [3] (NET1 C120A genotype 1,2); −0.4 in series [3] (NET1 C120A genotype 2,2). Moreover, the “Mean change in Food Craving Inventory (Total) score” value in series [3] (DRD2 C12121T 1,1 genotype, 15 mg dose) was −0.7; in series [3] (DRD2 C20236T 2,2 genotype, 15 mg dose), −0.7; in series [3] (NET1 T342C 2,2 genotype, 10 mg dose), −0.7. For the same molecule, the “Mean change in Food Craving Inventory (Total)” value in series [3] (setting [7]) was −0.528. In addition, in series [4] (setting [6]), the “Changes in systolic blood pressure compared to subjects with alternate genotypes” value was “decreased changes in heart rate and blood pressure; also recorded: comparatively small changes in HR, SBP and DBP”. Also, in series [4] (setting [7]), the “Systolic Blood Pressure (mean time adjusted change)” value came out at 0.9733. Besides, the “Inhibition of norepinephrine uptake” value in series [5] is reported as “potent, selective inhibitor of norepinephrine uptake”.
